One series concerns RSV-Luc5. The series is described as follows: microbe, parasite or virus in culture. To be noted: human respiratory syncytial virus, NHBE, 72 h, read-out: RSV NHBE EC50 (nM). The format is cell-based.
Series [1] can be described thus: in vitro. The format is in vitro ADME. As to conditions: human, s9, pH 7.4. Put shortly: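 Test compounds at 2 μM final were incubated in a GI S9 reaction mixture, reactions being started by substrate addition. Diluted supernatants were quantified by LC/MS on a Q-Exactive using analyte/internal standard peak area ratios, with 0.1% formic acid water/acetonitrile gradient elution and 5 ppm mass tolerance.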

The nature of series [2]: in vitro. The format is cell-based. To be noted: human. An outline of the steps:
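Uninfected MT4 cells cultured with compound 4–5 days at 37 °C, equilibrated to 25 °C, and viability read by CellTiter-Glo luminescence. Untreated and 2 μM puromycin-treated cells defined 100% and 0% viability; CC50, the concentration reducing viability by 50%, from non-linear regression.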

Another series relates to SARS-CoV2-NLuc. Kind of series: microbe, parasite or virus in culture. It is filed as cell-based, SARS Coronavirus 2. As to conditions: Severe acute respiratory syndrome coronavirus 2, 48 h, read-out: SARS-CoV2 EC50 (nM).
Series [3] deals with Caco-2 cells (clone C2BBe1). As to conditions: human, Caco-2.

Like-named read-outs stand apart in the source and are kept apart here.

The term EC50 denotes the concentration needed to bring the measured effect to its halfway point. One may read the half-life as the time in which the quantity being followed falls by half. Higher therefore signals slow decline. One may read the CC50 as the concentration giving 50% cytotoxicity. Read a high CC50 as lower toxicity to the cells. Consider `N#CC1(COC(=O)OC[C@H]2O[C@@](C#N)(c3ccc4c(N)ncnn34)[C@@H]3OC(=O)CCCC(=O)O[C@@H]32)CC1` [Compound C24, ((7aR,8R,10R,10aR)-10-(4-aminopyrrolo[2,1-f][1,2,4]triazin-7-yl)-10-cyano-2,6-dioxooctahydro-2H-furo[3,4-b][1,4]dioxonin-8-yl)methyl ((1-cyanocyclopropyl)methyl) carbonate], for which the EC50 with RSV-Luc5 was found to be 7760 nM; in the series with SARS-CoV2-NLuc it was 11500 nM. The same compound displayed a half-life at 2 μM in the series “in vitro [1]” of 33.9 s. For the same compound, the “Human Plasma T1/2” value (2 μM) came to 180 s. In addition, in “in vitro [2]”, the CC50 was over 50 µM.
The like results for `N#C[C@@]1(c2ccc3c(N)ncnn23)O[C@H](COC(=O)OC(CF)CF)[C@H]2OC(=O)CCCC(=O)O[C@H]21` [Compound C27, ((7aR,8R,10R,10aR)-10-(4-aminopyrrolo[2,1-f][1,2,4]triazin-7-yl)-10-cyano-2,6-dioxooctahydro-2H-furo[3,4-b][1,4]dioxonin-8-yl)methyl (1,3-difluoropropan-2-yl) carbonate] were, in that order, 9810 nM, 7400 nM, 37 s, 180 s and over 50 µM.
Consider `CC(C)OC(=O)OC[C@H]1O[C@@](C#N)(c2ccc3c(N)ncnn23)[C@@H]2OC(=O)CCOCCC(=O)O[C@@H]21` [Compound C8, ((9aR,10R,12R,12aR)-12-(4-aminopyrrolo[2,1-f][1,2,4]triazin-7-yl)-12-cyano-2,8-dioxooctahydro-2H,6H-furo[3,4-b][1,4,8]trioxacycloundecin-10-yl)methyl isopropyl carbonate], for which the 50% effective concentration (EC50) with RSV-Luc5 was 3350 nM; with SARS-CoV2-NLuc it was over 50000 nM. The compound further registered a half-life at 2 μM in “in vitro [1]” of 41.2 s. Besides, the “Caco2 A to B” value in series [3] came to 1.56. In addition, in series [3], the “Caco2 B to A” value turned out to be 10.63. Besides, the “Human Plasma T1/2” value (2 μM) was 180 s. Moreover, the CC50 in “in vitro [2]” was over 50 µM.
In the case of `COC(=O)OC[C@H]1O[C@@](C#N)(c2ccc3c(N)ncnn23)[C@@H]2OC(=O)CCCC(=O)O[C@@H]21` [Compound C13, ((7aR,8R,10R,10aR)-10-(4-aminopyrrolo[2,1-f][1,2,4]triazin-7-yl)-10-cyano-2,6-dioxooctahydro-2H-furo[3,4-b][1,4]dioxonin-8-yl)methyl methyl carbonate], in the series with RSV-Luc5, the concentration giving a half-maximal response (EC50) was 30000 nM. Moreover, the half-life at 2 μM in “in vitro [1]” came to 36.8 s. For the same compound, in series [3], the “Caco2 A to B” value came to 2.1 and the “Caco2 B to A” value was 5.18. Besides, the “Human Plasma T1/2” value (2 μM) was 180 s. In “in vitro [2]”, this compound returned a CC50 of over 50 µM. Also, the EC50 with SARS-CoV2-NLuc was determined as 4100 nM.
As to `COC(C)(C)COC(=O)OC[C@H]1O[C@@](C#N)(c2ccc3c(N)ncnn23)[C@@H]2OC(=O)CCCC(=O)O[C@@H]21` [Compound C22, ((7aR,8R,10R,10aR)-10-(4-aminopyrrolo[2,1-f][1,2,4]triazin-7-yl)-10-cyano-2,6-dioxooctahydro-2H-furo[3,4-b][1,4]dioxonin-8-yl)methyl (2-methoxy-2-methylpropyl) carbonate], the figures for the concentration for a half-maximal effect (EC50) with RSV-Luc5 and in the series on SARS-CoV2-NLuc were 4850 nM and 5110 nM, respectively. The compound also registered a half-life at 2 μM in “in vitro [1]” of 34.1 s. Further, in series [3], the “Caco2 A to B” value was 0.88. In addition, the “Caco2 B to A” value in series [3] stood at 3.46. For the same compound, where the note is “2 μM”, the “Human Plasma T1/2” value amounted to 180 s. In the series “in vitro [2]”, this compound had a CC50 of over 50 µM.
Take `CCOC(=O)OC[C@H]1O[C@@](C#N)(c2ccc3c(N)ncnn23)[C@@H]2OC(=O)CCCC(=O)O[C@@H]21` [Compound C12, ((7aR,8R,10R,10aR)-10-(4-aminopyrrolo[2,1-f][1,2,4]triazin-7-yl)-10-cyano-2,6-dioxooctahydro-2H-furo[3,4-b][1,4]dioxonin-8-yl)methyl ethyl carbonate]: the “Human Plasma T1/2” value came to 180 s. Further, the EC50 in the series on RSV-Luc5 came to 7940 nM. For the same compound, the half-life at 2 μM in the series “in vitro [1]” is 37.3 s. Moreover, in series [3], the “Caco2 A to B” value is on record as 1.94 and the “Caco2 B to A” value amounted to 5.31. The compound also had a CC50 in “in vitro [2]” of over 50 µM. The EC50 in the series on SARS-CoV2-NLuc was 5880 nM.
As to `CC(C)OC(=O)OC[C@H]1O[C@@](C#N)(c2ccc3c(N)ncnn23)[C@@H]2OC(=O)CCCCCC(=O)O[C@@H]21` [Compound C6, ((9aR,10R,12R,12aR)-12-(4-aminopyrrolo[2,1-f][1,2,4]triazin-7-yl)-12-cyano-2,8-dioxodecahydro-2H-furo[3,4-b][1,4]dioxacycloundecin-10-yl)methyl isopropyl carbonate], the EC50 in the series on RSV-Luc5 was found to be 1460 nM. Further, the half-life at 2 μM in “in vitro [1]” was determined as 38.2 s. Further, in series [3], the “Caco2 A to B” value is 11.12 and the “Caco2 B to A” value was 11.68. In addition, the “Human Plasma T1/2” value (2 μM) was 180 s. The CC50 in “in vitro [2]” is over 50 µM. Also, in the series on SARS-CoV2-NLuc, the EC50 is over 50000 nM.
For `CC(C)OC(=O)OC[C@H]1O[C@@](C#N)(c2ccc3c(N)ncnn23)[C@@H]2OC(=O)CCC=CCCC(=O)O[C@@H]21` [Compound C9, ((10aR,11R,13R,13aR)-13-(4-aminopyrrolo[2,1-f][1,2,4]triazin-7-yl)-13-cyano-2,9-dioxo-2,3,4,7,8,9,10a,11,13,13a-decahydrofuro[3,4-b][1,4]dioxacyclododecin-11-yl)methyl isopropyl carbonate], the concentration for a half-maximal effect (EC50) in the series on RSV-Luc5 was 3050 nM. In addition, the half-life at 2 μM in the series “in vitro [1]” came to 39.3 s. Also, in series [3], the “Caco2 A to B” value is listed as 18.29 and the “Caco2 B to A” value was determined as 17.94. Moreover, where the note is “2 μM”, the “Human Plasma T1/2” value worked out at 180 s. Also, the CC50 in the series “in vitro [2]” is over 50 µM. The concentration for a half-maximal effect (EC50) in the series with SARS-CoV2-NLuc was 27500 nM.
On to `CC(C)OC(=O)OC[C@H]1O[C@@](C#N)(c2ccc3c(N)ncnn23)[C@@H]2OC(=O)CCCCC(=O)O[C@@H]21` [Compound C7, ((8aR,9R,11R,11aR)-11-(4-aminopyrrolo[2,1-f][1,2,4]triazin-7-yl)-11-cyano-2,7-dioxodecahydrofuro[3,4-b][1,4]dioxecin-9-yl)methyl isopropyl carbonate], for which the EC50 with RSV-Luc5 was found to be 2730 nM. Besides, in the series “in vitro [1]”, the half-life at 2 μM was found to be 35.8 s. In series [3], the “Caco2 A to B” value is given as 4.31 and the “Caco2 B to A” value worked out at 9.89. For the same compound, the “Human Plasma T1/2” value (2 μM) amounted to 180 s. This compound returned a half-maximal cytotoxic concentration (CC50) in the series “in vitro [2]” of over 50 µM. Also, in the series with SARS-CoV2-NLuc, the EC50 is over 50000 nM.
With `CCC(=O)OC[C@H]1O[C@@](C#N)(c2ccc3c(N)ncnn23)[C@@H]2OC(=O)CCCC(=O)O[C@@H]21` [Compound C56, ((7aR,8R,10R,10aR)-10-(4-aminopyrrolo[2,1-f][1,2,4]triazin-7-yl)-10-cyano-2,6-dioxooctahydro-2H-furo[3,4-b][1,4]dioxonin-8-yl)methyl propionate], the EC50 with RSV-Luc5 is 2300 nM; with SARS-CoV2-NLuc it was 4580 nM. The “Human Plasma T1/2” value (2 μM) came to 180 s. The compound also yielded a CC50 in the series “in vitro [2]” of over 50 µM.
On to `CC(C)C(=O)OC[C@H]1O[C@@](C#N)(c2ccc3c(N)ncnn23)[C@@H]2OC(=O)CCCC(=O)O[C@@H]21` [Compound C54, ((7aR,8R,10R,10aR)-10-(4-aminopyrrolo[2,1-f][1,2,4]triazin-7-yl)-10-cyano-2,6-dioxooctahydro-2H-furo[3,4-b][1,4]dioxonin-8-yl)methyl isobutyrate], for which, in the series with RSV-Luc5, the 50% effective concentration (EC50) stood at 6040 nM. Besides, the half-life at 2 μM in “in vitro [1]” worked out at 35.3 s. Further, in series [3], the “Caco2 A to B” value was found to be 1 and the “Caco2 B to A” value came out at 2.98. Also, where the note is “2 μM”, the “Human Plasma T1/2” value came to 180 s. This compound also yielded a 50% cytotoxic concentration (CC50) in “in vitro [2]” of over 50 µM. In addition, in the series with SARS-CoV2-NLuc, the concentration for a half-maximal effect (EC50) stood at 7880 nM.
In the case of `CCC(CC)COC(=O)OC[C@H]1O[C@@](C#N)(c2ccc3c(N)ncnn23)[C@@H]2OC(=O)CCCC(=O)O[C@@H]21` [Compound C21, ((7aR,8R,10R,10aR)-10-(4-aminopyrrolo[2,1-f][1,2,4]triazin-7-yl)-10-cyano-2,6-dioxooctahydro-2H-furo[3,4-b][1,4]dioxonin-8-yl)methyl (2-ethylbutyl) carbonate], the EC50 in the series on RSV-Luc5 was 6600 nM; with SARS-CoV2-NLuc, 1440 nM. The same compound displayed a half-life at 2 μM in the series “in vitro [1]” of 38.2 s. Also, the “Human Plasma T1/2” value (2 μM) was 180 s. The compound further showed a CC50 in the series “in vitro [2]” of over 50 µM.
For the compound `N#C[C@@]1(c2ccc3c(N)ncnn23)O[C@H](COC(=O)OC2CCOC2)[C@H]2OC(=O)CCCC(=O)O[C@H]21` (stereo partly drawn) [Compound C23, ((7aR,8R,10R,10aR)-10-(4-aminopyrrolo[2,1-f][1,2,4]triazin-7-yl)-10-cyano-2,6-dioxooctahydro-2H-furo[3,4-b][1,4]dioxonin-8-yl)methyl (tetrahydrofuran-3-yl) carbonate], in the series on RSV-Luc5, the EC50 was 19900 nM. For the same compound, the half-life at 2 μM in “in vitro [1]” worked out at 34.1 s. For the same compound, in series [3], the “Caco2 A to B” value came to 0.66 and the “Caco2 B to A” value is 4.38. The “Human Plasma T1/2” value (2 μM) is 180 s. In “in vitro [2]”, the CC50 was over 50 µM. Moreover, the EC50 with SARS-CoV2-NLuc is 18400 nM.

Values taken from patent publication US20240417411A1, “COMPOUNDS AND METHODS FOR TREATMENT OF VIRAL INFECTIONS” (priority 2023, published 2024).
